Measurements reported in article PMC6415263, “Proteins as Nano-Carriers for Bioactive Compounds. The Case of 7S and 11S Soy Globulins and Folic Acid Complexation” (Polymers, 2018).

How the values were obtained:
11S globulin (glycinin) = target: T1, 11S globulin (glycinin); experiment: intrinsic fluorescence quenching, modified double logarithm model; type: binding, Glycine max; conditions: Trizma buffer pH 7.0, I = 0.05 M, 25 °C; excitation 280 nm; protein 5 μM, FA 0-20 μM (methods section prints mM)
T1 construct: gene GY1; native 11S fraction from defatted soybean flour (Nagano method), lyophilized; hexamer of non-identical subunits, each acidic A and basic B polypeptide joined by disulfide; 300-380 kDa
From the text: intrinsic fluorescence quenching, modified double logarithm model on 11S globulin (glycinin)

[1] = target: T2, 7S globulin (β-conglycinin); experiment: as above; type: binding, Glycine max; conditions: Trizma buffer pH 7.0, I = 0.05 M, 25 °C; excitation 280 nm; protein 5 μM, FA 0-20 μM (methods section prints mM)
T2 construct: gene CG-1; native 7S fraction from defatted soybean flour (Nagano method), lyophilized; mixed trimers of alpha, alpha' and beta; 150-200 kDa; minor gamma-conglycinin
From the text: intrinsic fluorescence quenching, modified double logarithm model on 7S globulin (β-conglycinin)

- Parameters derived from modified double logarithm model / Ka [M^-1] (11S globulin (glycinin)): 4.36 × 10^4
- Parameters derived from modified double logarithm model / Ka [M^-1] [1]: 4.00 × 10^4
Structure (SMILES): Nc1nc2ncc(CNc3ccc(C(=O)N[C@@H](CCC(=O)O)C(=O)O)cc3)nc2c(=O)[nH]1 [folic acid]
